Patent US12637464B2, “Tetracyclic compounds for treating brain disorders” (The Regents of the University of California, priority 2021, dated 2026)

Tests used:
[1] = system: C57BL/6J mice; assay: Head-twitch response (HTR) assay; assay type: in vivo, mouse
Procedure: Head-Twitch Response Assay. The HTR assay was performed using equal numbers of male and female C57BL/6J mice. The mice were obtained from The Jackson Laboratory (Sacramento, CA) and were approximately 8-12 weeks old at the time of the experiments. After compound administration, animals were placed into an empty arena (40 cm×40 cm) and filmed for 20 min. The arena was cleaned with 70% ethanol between trials. Animals were given a one-week washout period before being tested again. Animals were tested a maximum of 4 times. All drug treatments were randomized and no animal received the same drug and dose twice. For the blocking experiments, animals were administered (+)-JRT (1 mg/kg) or vehicle (saline) via IP injection and placed in an empty cage for 15 min. Animals were then administered LSD (0.2 mg/kg, IP), placed in the test arena, and filmed for 20 min. Videos were scored later by two blinded observers, and the results were averaged (Pearson correlation coefficient>0.9).

[2] = system: Sprague Dawley rats; assay: Rat forced swim test (FST); assay type: in vivo; conditions: FST 24 h after compound administration; ketamine as comparator
Procedure: Rat Forced Swim Test (FST). This study was performed by Psychogenics (Paramus, NJ). Male Sprague Dawley rats were purchased from Envigo (Indianapolis, IN), and upon receipt, they were assigned unique identification numbers (tail marked) and group housed in ventilated cages with 3 rats per cage. All animals remained housed in groups of three for the remainder of the study. All rats were acclimated to the colony room for up to one week prior to dosing. During the period of acclimation, rats were examined and handled daily, and weighed to assure adequate health and suitability. The room temperature was maintained between 20° C. and 23° C. with a relative humidity of 30%-70%. Lab Rodent Diet 5001 (W.F. Fisher, Cat #11015) and water were provided ad libitum. […] All animals were carefully monitored to ensure their safety in the swim test and any animal unable to maintain a posture with its nose above water was immediately removed from the water and not used further in the study. […] This test lasted for 5 min and was video recorded. A blinded experimenter manually scored the videos for swimming, climbing, and immobility behavior. Scoring of the forced swim test was performed by trained technicians using a time sampling technique in which the animal in the video recorded test was viewed every 5 seconds and the behavior observed was noted (e.g., immobile, swimming, or climbing). […]

[3] = system: C57BL/6J mice; assay: 4-odor discrimination and reversal; assay type: in vivo, mouse; conditions: 1 mg/kg IP
Procedure: 4-Odor Discrimination and Reversal. A 4-odor discrimination and reversal behavioral assay was performed as described previously with slight modifications. Food restriction was begun five days before the discrimination and reversal tests to reduce animals' body weight to ˜80% of their starting weight. A total of 31 C57BL/6J mice 2-3 months of age were used in this assay. Eleven mice (5 males, 6 females) served as VEH/unstressed controls, 10 animals (4 males, 6 females) as a VEH/stress group, and 10 animals (4 males, 6 females) as a treatment/stress group. Both the VEH/stress and […] groups were subjected to a 7-day unpredictable mild stress protocol using previously validated stressors. Two stressors were delivered during the day, with additional overnight stressors on 4 of the days. […]

[4] = system: serotonin receptors; assay: Radioligand binding selectivity panel (Eurofins Discovery); conditions: FIG. 3A; binding profile compared to (+)-LSD

`CCN(CC)C(=O)[C@@H]1C=C2c3cccc4ccn(c34)C[C@H]2N(C)C1` [(+)-JRT] was tested, and the “HTR induced by LSD (antipsychotic properties)” value ([1]; (+)-JRT 1 mg/kg pretreatment, LSD 0.2 mg/kg) was “antagonizing a HTR induced by LSD”, the “hallucinogenic potential (mouse head-twitch response, agonist mode)” value ([1]; male and female mice, agonist mode) was “low hallucinogenic potential” and the “antidepressant-like effects in rat FST” value [2] was “antidepressant-like effects comparable to ketamine at substantially lower doses”. For the same compound, the stimulus discrimination ([3]; 4-odor discrimination phase, stressed mice) was “does not impact stimulus discrimination”, the “cognitive deficits induced by unpredictable mild stress (reversal)” value ([3]; reversal phase, after 7-day unpredictable mild stress) was “rescues cognitive deficits induced by unpredictable mild stress” and the “receptor selectivity (binding profile)” value [4] was “highly selective for serotonin receptors”.
